Experimental data from patent US20100056519A1, “COMPOSITION AND METHOD FOR REDUCING PLATELET ACTIVATION AND FOR THE TREATMENT OF THROMBOTIC EVENTS” (priority 2008, published 2010).

Assays:
Assay type in all cases: cell-based, human
[1] = system: platelets; experiment: Conventional platelet aggregation in PRP induced by 5 μM ADP; details: for Platelet Aggregation (%), ADP 5 μM: Mean ± SD
Method: (§1) The methodology employed was conventional aggregation induced by 5 μM ADP, 1 μg/ml collagen, 10 μM TRAP, whole blood aggregation with 1 μg/ml collagen, Ultegra, and PFA-100 Analyzers, expression of 14 intact, and TRAP-stimulated major receptors by whole blood flow cytometry were utilized to assess platelet activity after preincubation with escalating concentrations of E5555 (20 ng/ml, 50 ng/ml, and 100 ng/ml). The experiments were performed in healthy volunteers, CAD patients treated with ASA, and CAD patients treated with ASA and clopidogrel combination (n=10, for each group).
(§2) An Informed Consent was obtained from all volunteers. Drug users were excluded from data analysis. The study was approved by Quorum Institutional Review Board. All subjects underwent blood sampling after at least 30 minutes of rest and two or more hours of fasting. Blood (28 ml) was drawn between 8 and 10 a.m. in order to avoid any diurnal influence and sampled from an antecubital vein using a 21-gauge butterfly needle containing 3.2% sodium citrate (1:9 volume) after having discarded the first 1.5 ml of free running blood. Four Vacutainer tubes (7.0 ml) were collected for a total of 28 ml of whole blood-citrate mixture from each study participant. Chronologically, blood samples were delivered to the core laboratory facility within 45 minutes after drawing. Then all tubes of blood-citrate mixture were pooled. One portion of pooled blood (5 ml) was kept as an internal control and pretreated with the vehicle. The remaining blood (23 ml) was used for the in vitro exposure to E5555 at concentrations of 20 ng/ml, 50 ng/ml, and 100 ng/ml. […] The platelet aggregation studies, Rapid Analyzers measures, and flow cytometry preparations were initiated within no more than 110 minutes following the blood draw, incubation with the drug, and preparation of the samples.
Platelet counts were determined in each PRP sample with a Coulter Counter ZM (Coulter Co., Hialeah, Fla.). Platelet numbers were adjusted to 3.50×10^8/ml for aggregation using homologous platelet-poor plasma. Platelet aggregation was stimulated with 5 μM ADP, 1 μg/ml collagen, or 10 μM TRAP. All agonists were obtained from Chronolog Corporation (Havertown, Pa.) and Sigma (St. Louis, Miss.). Platelet aggregation experiments were performed using a Chrono-Log Lumi-Aggregometer (model 560-Ca). Aggregation curves were recorded for 4 minutes and analyzed according to internationally established standards using Aggrolink® software. Platelet aggregability was expressed as the percentage of light transmittance change from baseline using platelet-poor plasma as a reference.

[2] = system: platelets; experiment: Whole blood (impedance) aggregation with 1 μg/ml collagen; details: Mean ± SD
Method: as §1, §2
Whole blood aggregation was determined using a Chronolog device 592A. The whole blood-citrate mixture was diluted 1:1 with 0.5 ml phosphate buffered saline and gently swirled. The sample then was allowed to warm to 37° C. for 5 minutes then transferred to the assay well. The electrode was then placed in the cuvette and the sample was stimulated with 1 μg/ml collagen. The change in electrical impedance was digitally recorded. Each whole blood sample was analyzed utilizing 2 different clinical devices: • (1) a Rapid Platelet-Function Assay (Ultegra®) (Accumetrics, Inc., San Diego, Calif.), which is a rapid platelet-function assay aspirin cartridge test with TRAP used as agonist. Polystyrene beads coated with fibrinogen are placed in a cartridge along with the peptide that activates thrombin receptor. Anticoagulated whole blood was added to the cartridge, and agglutination between platelets and coated beads was recorded. The data mirrors turbidimetric platelet aggregation and presumably reflects platelet glycoprotein IIb/IIIa blockade. Ultegra RPFA-TRAP Assay results were reported as Platelet Activation Units (PAU); and • (2) Platelet-Function Analyzer PFA-100 ™ (Dade Behring, Deerfield Ill.), which is a high shear-inducing analyzer that simulates primary hemostasis after injury to a small vessel under flow conditions. The device provides a constant negative pressure that aspirates whole blood, which comes into contact with the collagen, coated membrane and then passes through the aperture. The time required to obtain occlusion of the aperture is digitally recorded. The time to aperture occlusion (the closure time) is recorded in seconds and is inversely related to the degree of shear-induced platelet activation. We used ADP/Collagen cartridges in the index study. Both PFA-100 and Ultegra assays were performed in duplicate. An electronic quality control test was performed on each instrument daily prior to performing any patient samples.

[3] = system: PECAM-1 (CD31); experiment: Unstimulated whole blood flow cytometry, PECAM-1; details: for PECAM-1 (CD31), Mean Fluorescence Intensity: unstimulated, Mean ± SD
Method: as §1, §2
(§3) Formation of platelet-leukocyte aggregates was assessed by dual labeling with pan-platelet marker (CD151), and then with CD14, the macrophage receptor for endotoxin lipopolysaccharides (PharMingen, and Coulter, San Diego, Calif., USA). The tubes were then covered with aluminum foil and incubated at 37° C. for 40 minutes with gentle rotation. After incubation, samples were immediately analyzed on a Becton Dickinson FACScan flow cytometer. The instrument was set up to measure forward light scatter, and FITC fluorescence. All parameters were collected using four-decade logarithmic amplification. The data was retrieved in list mode files and then analyzed. P selectin was expressed as percent positive cells. Other antigens were expressed as log mean fluorescence intensity.

[4] = system: SPAN-12; experiment: TRAP-stimulated whole blood flow cytometry, SPAN-12; details: Mean ± SD
Method: as §1, §2, §3
For flow cytometry (TRAP-stimulated) all of the above flow cytometry experiments were identically repeated utilizing prestimulation with 10 μmol/L TRAP for 5 minutes at 37° C. To determine statistics, a Paired Sign Test was used to define significance of differences between vehicle and E5555-treated groups. The Mann-Whitney U test was used to analyze nonparametric data. Normally distributed data were expressed as mean±standard error (m±SE), and skewed data as median (range). All P-values were two sided. All analysis was performed using the SPSS v9.0 program (SPSS Inc., Chicago, Ill.).

[5] = E5555 20 ng/ml, CAD patients treated with ASA + clopidogrel
[6] = E5555 20 ng/ml, CAD patients treated with ASA
[7] = E5555 20 ng/ml, healthy volunteers
[8] = E5555 50 ng/ml, CAD patients treated with ASA + clopidogrel
[9] = E5555 50 ng/ml, CAD patients treated with ASA
[10] = E5555 50 ng/ml, healthy volunteers
[11] = E5555 100 ng/ml, CAD patients treated with ASA + clopidogrel
[12] = E5555 100 ng/ml, CAD patients treated with ASA
[13] = E5555 100 ng/ml, healthy volunteers
[14] = E5555 20 ng/ml, Patients (ASA + C)
[15] = E5555 50 ng/ml, Patients (ASA + C)
[16] = E5555 100 ng/ml, Patients (ASA + C)
[17] = E5555 100 ng/ml, Patients (ASA)

Q: Which results are given for `Br.CCOc1cc2c(c(F)c1OCC)C(=N)N(CC(=O)c1cc(N3CCOCC3)c(OC)c(C(C)(C)C)c1)C2` [E5555, 1-(3-tert-butyl-4-methoxy-5-morpholinophenyl)-2-(5,6-diethoxy-7-fluoro-1-imino-1,3-dihydro-2H-isoindol-2-yl)ethanone hydrobromide]?
A: inhibition of platelet activity, aggregation induced by ADP ([1]; ASA-treated patients with coronary artery disease): 10-12%; ADP-induced aggregation, effect in words ([1]; CAD patients treated with ASA+clopidogrel): remains unchanged; Platelet Aggregation (%), ADP 5 μM [1, 5]: 40.8 ± 7.1%; Platelet Aggregation (%), ADP 5 μM [1, 6]: 51.8 ± 4.7 %; Platelet Aggregation (%), ADP 5 μM [1, 7]: 57.0 ± 9.2 %; Platelet Aggregation (%), ADP 5 μM [1, 8]: 42.6 ± 8.3%; Platelet Aggregation (%), ADP 5 μM [1, 9]: 53.3 ± 5.9 %; Platelet Aggregation (%), ADP 5 μM [1, 10]: 59.4 ± 7.9 %; Platelet Aggregation (%), ADP 5 μM [1, 11]: 39.3 ± 5.1%; Platelet Aggregation (%), ADP 5 μM [1, 12]: 56.2 ± 5.3%; Platelet Aggregation (%), ADP 5 μM [1, 13]: 60.8 ± 10.0 %; inhibition of conventional platelet aggregation induced by ADP ([1]; healthy volunteers, E5555 20, 50, and 100 ng/ml): 15-20%; inhibition of ADP-induced platelet aggregation in plasma ([1]; overall summary of the study): 10-15%; Platelet Aggregation, Whole Blood Collagen 1 μg/mL [2, 5]: 13 ± 5 ohms; Platelet Aggregation, Whole Blood Collagen 1 μg/mL [2, 6]: 11 ± 4 ohms; Platelet Aggregation, Whole Blood Collagen 1 μg/mL [2, 7]: 22 ± 5 ohms; Platelet Aggregation, Whole Blood Collagen 1 μg/mL [2, 8]: 12 ± 7 ohms; Platelet Aggregation, Whole Blood Collagen 1 μg/mL [2, 9]: 14 ± 6 ohms; Platelet Aggregation, Whole Blood Collagen 1 μg/mL [2, 10]: 25 ± 7 ohms; Platelet Aggregation, Whole Blood Collagen 1 μg/mL [2, 11]: 14 ± 4 ohms; Platelet Aggregation, Whole Blood Collagen 1 μg/mL [2, 12]: 12 ± 5 ohms; Platelet Aggregation, Whole Blood Collagen 1 μg/mL [2, 13]: 22 ± 6 ohms; PECAM-1 expression, effect in words ([3]; overall summary, stimulation not stated): significant reduction; PECAM-1 (CD31), Mean Fluorescence Intensity [3, 14]: 55 ± 11 MFI; PECAM-1 (CD31), Mean Fluorescence Intensity ([3]; E5555 20 ng/ml, Patients (ASA)): 52 ± 9 MFI; PECAM-1 (CD31), Mean Fluorescence Intensity ([3]; E5555 20 ng/ml, Volunteers): 64 ± 10 MFI; PECAM-1 (CD31), Mean Fluorescence Intensity [3, 15]: 51 ± 9 MFI; PECAM-1 (CD31), Mean Fluorescence Intensity ([3]; E5555 50 ng/ml, Patients (ASA)): 53 ± 7 MFI; PECAM-1 (CD31), Mean Fluorescence Intensity ([3]; E5555 50 ng/ml, Volunteers): 60 ± 8 MFI; PECAM-1 (CD31), Mean Fluorescence Intensity [3, 16]: 54 ± 8 MFI; PECAM-1 (CD31), Mean Fluorescence Intensity [3, 17]: 57 ± 10 MFI; PECAM-1 (CD31), Mean Fluorescence Intensity ([3]; E5555 100 ng/ml, Volunteers): 64 ± 11 MFI; SPAN-12, Mean Fluorescence Intensity [4, 14]: 9 ± 2 MFI; SPAN-12, Mean Fluorescence Intensity ([4]; E5555 20 ng/ml, Patients (ASA)): 12 ± 4 MFI; SPAN-12, Mean Fluorescence Intensity ([4]; E5555 20 ng/ml, Volunteers): 20 ± 3 MFI; SPAN-12, Mean Fluorescence Intensity [4, 15]: 9 ± 3 MFI; SPAN-12, Mean Fluorescence Intensity ([4]; E5555 50 ng/ml, Patients (ASA)): 9 ± 4 MFI; SPAN-12, Mean Fluorescence Intensity ([4]; E5555 50 ng/ml, Volunteers): 17 ± 5 MFI; SPAN-12, Mean Fluorescence Intensity [4, 16]: 11 ± 3 MFI; SPAN-12, Mean Fluorescence Intensity [4, 17]: 10 ± 6 MFI; SPAN-12, Mean Fluorescence Intensity ([4]; E5555 100 ng/ml, Volunteers): 17 ± 4 MFI
